Values of other authors as cited in publication PMC8796384, “Plasma protein binding prediction focusing on residue-level features and circularity of cyclic peptides by deep learning” (Bioinformatics, 2021).
Where two headings read alike, the source gives them in different places.

Experiments:
[1] = tested on: plasma proteins; settings: whole-peptide descriptor model trained on small molecules; ref Tajimi et al. (2018)
[2] = tested on: plasma proteins
Text: The external test (DrugBank) data contained some structurally similar pairs.

[3] = experimental %PPB, below 50% rounded to 50%, above 95% rounded to 95%, DrugBank dataset collected by Tajimi et al. (2018), ref Wishart et al., 2018

Substance	%PPB50-95 [2, 3]	also measured
daptomycin		predicted %PPB value by Tajimi [1]: 49%
Anidulafungin	84%	
Lanreotide	81%	
Pasireotide		%PPB50-95 [2]: 88%
Micafungin	95%	
Polymyxin B		%PPB50-95 [2]: 85.5%
Caspofungin	95%	
